Measurements from patent publication US20150291610A1, “C20' Urea Derivatives of Vinca Alkaloids” (THE SCRIPPS RESEARCH INSTITUTE, priority 2012, published 2015).
Read-outs that look alike come from different tables or passages of the source.

Assays:
[1] = tested on: HCT116 (human colorectal carcinoma) cells; assay: Cell growth inhibition assay, HCT116; format: cell-based
Experimental: (§1) A population of cells (>1×10^6 cells/mL as determined with a hemocytometer) was diluted with an appropriate amount of Dulbecco-modified Eagle Medium (DMEM, Gibco) containing 10% fetal bovine serum (FBS, Gibco) to a final concentration of 30,000 cells/mL.
(§2) To each well of a 96-well plate (Corning Costar), 100 μL of the cell-media solution was added with a multichannel pipette. The cultures were incubated at 37° C. in an atmosphere of 5% CO2 and 95% humidified air for 24 hours. The test compounds were added to the plate as follows: test substances were diluted in DMSO to a concentration of 1 mM and 10-fold serial dilutions were performed on a separate 96-well plate. Fresh culture medium (100 μL) was added to each well of cells to constitute 200 μL of medium per well followed by 2 μL of each test agent. Compounds were tested in duplicate (n=2-8 times) at six concentrations between 0-1,000 nM or 0-10,000 nM. Following addition, cultures were incubated for an additional 72 hours.
(§3) The plates were incubated at 37° C. for either 5 minutes (L1210) or 15 minutes (HCT116 and HCT116/VM46).

[2] = tested on: HCT116/VM46 (vinblastine-resistant strain of HCT116, Pgp over-expression) cells; assay: Cell growth inhibition assay, HCT116/VM46
Experimental: as §1, §2, §3

[3] = tested on: L1210 (mouse lymphocytic leukemia) cells; conditions: reported in Leggans et al., Org. Lett. 2012; cited from earlier work
[4] = tested on: HCT116 (human colorectal carcinoma) cells; conditions: reported in Leggans et al., Org. Lett. 2012; cited from earlier work
[5] = tested on: HCT116/VM46 (vinblastine-resistant strain of HCT116, Pgp over-expression) cells; conditions: read-out: IC50 (nM) HCT116/VM46; reported in Leggans et al., Org. Lett. 2012; cited from earlier work
[6] = tested on: L1210 (mouse lymphocytic leukemia) cells; assay: Cell growth inhibition assay, L1210; format: cell-based; conditions: L1210 murine leukemia cell line; avg of 4-16 determinations
Experimental: as §1, §2, §3

porcine tubulin = target: T1, porcine tubulin (Sus scrofa, UniProt P02550+P02554); format: binding; conditions: for tubulin binding affinity compared with vinblastine: in words
T1 construct: purified porcine tubulin; purchased Cytoskeleton, Inc
From the text: [Owellen et al., Biochem. Pharmacol. 1977 26:1213-1219.] […] Millipore Steriflip® filter units were used to wash the filter paper with buffer under mild suction.

[7] = tested on: AU565 (Breast, overexpression of her2/neu); assay: 15-cell line panel, independent laboratory: AU565; format: cell-based, human
NCI-H520 (Lung) = assay: 15-cell line panel: NCI-H520; format: cell-based, human; conditions: independent laboratory panel
[8] = tested on: HCC1143 (Breast, triple negative); assay: 15-cell line panel: HCC1143; format: cell-based, human; conditions: independent laboratory panel
[9] = tested on: HCC70 (Breast, overexpression of p53); assay: 15-cell line panel: HCC70; format: cell-based, human; conditions: independent laboratory panel
[10] = tested on: KPL4 (Breast, overexpression of erbB2); assay: 15-cell line panel: KPL4; format: cell-based, human; conditions: independent laboratory panel
LNCaP-FGC (Prostate) = assay: 15-cell line panel: LNCaP-FGC; format: cell-based, human; conditions: independent laboratory panel
[11] = tested on: LS174T (Colon, high levels of MUC2 mRNA); assay: 15-cell line panel: LS174T; format: cell-based, human; conditions: independent laboratory panel
[12] = tested on: MCF-7 (Breast, overexpression of her2/neu); assay: 15-cell line panel: MCF-7; format: cell-based, human; conditions: independent laboratory panel; > = highest concentration tested
[13] = tested on: MDA-MB-468 (Breast, triple negative, amplified EGFR); assay: 15-cell line panel: MDA-MB-468; format: cell-based, human; conditions: independent laboratory panel
[14] = tested on: SW403 (Colon, KRAS^G12V mutation); assay: 15-cell line panel: SW403; format: cell-based, human; conditions: independent laboratory panel
[15] = tested on: T47D (Breast, mutant p53); assay: 15-cell line panel: T47D; format: cell-based, human; conditions: independent laboratory panel
[16] = tested on: ZR-75-1 (Breast, overexpression of her2); assay: 15-cell line panel: ZR-75-1; format: cell-based, human; conditions: independent laboratory panel
[17] = tested on: PA-1 (Ovary, overexpression of AIB1); assay: 15-cell line panel: PA-1; format: cell-based, human; conditions: independent laboratory panel
[18] = tested on: HCT116/VM46 (Colon, vinblastine resistant); assay: 15-cell line panel: HCT116/VM46; format: cell-based, human; conditions: independent laboratory panel; for IC50: > = highest concentration tested
HCT116 (Colon) = assay: 15-cell line panel: HCT116; format: cell-based, human; conditions: independent laboratory panel
[19] = tested on: human tumor 15-cell line panel; assay: Human tumor 15-cell line panel, whole panel (averages, ranges); format: cell-based; conditions: for average IC50 value in human tumor cell line panel: comparative average
[20] = HCT116 human colon cancer cell line, avg of 4-16 determinations, read-out: IC50 (nM) HCT116
[21] = read-out: IC50 (nM) HCT116/VM46, resistant human colon cancer cell line, Pgp over-expression
[22] = ligand vs [^3H]VBL (1:1), normalized to VLB + [^3H]VLB = 50.0%

T1 sequence (P02550 whole entry): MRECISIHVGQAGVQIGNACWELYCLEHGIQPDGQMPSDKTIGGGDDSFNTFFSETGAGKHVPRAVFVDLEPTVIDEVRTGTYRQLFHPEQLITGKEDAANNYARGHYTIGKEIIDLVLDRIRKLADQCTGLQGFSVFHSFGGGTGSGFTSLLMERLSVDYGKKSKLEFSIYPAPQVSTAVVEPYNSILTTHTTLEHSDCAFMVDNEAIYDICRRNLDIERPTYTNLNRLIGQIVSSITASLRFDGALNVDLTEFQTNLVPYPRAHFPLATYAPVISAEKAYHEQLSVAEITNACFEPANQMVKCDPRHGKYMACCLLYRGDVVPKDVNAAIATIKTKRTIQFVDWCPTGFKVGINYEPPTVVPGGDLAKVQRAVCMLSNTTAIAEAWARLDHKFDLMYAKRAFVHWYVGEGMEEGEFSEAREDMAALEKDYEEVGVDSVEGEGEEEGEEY
T1 sequence (P02554 whole entry): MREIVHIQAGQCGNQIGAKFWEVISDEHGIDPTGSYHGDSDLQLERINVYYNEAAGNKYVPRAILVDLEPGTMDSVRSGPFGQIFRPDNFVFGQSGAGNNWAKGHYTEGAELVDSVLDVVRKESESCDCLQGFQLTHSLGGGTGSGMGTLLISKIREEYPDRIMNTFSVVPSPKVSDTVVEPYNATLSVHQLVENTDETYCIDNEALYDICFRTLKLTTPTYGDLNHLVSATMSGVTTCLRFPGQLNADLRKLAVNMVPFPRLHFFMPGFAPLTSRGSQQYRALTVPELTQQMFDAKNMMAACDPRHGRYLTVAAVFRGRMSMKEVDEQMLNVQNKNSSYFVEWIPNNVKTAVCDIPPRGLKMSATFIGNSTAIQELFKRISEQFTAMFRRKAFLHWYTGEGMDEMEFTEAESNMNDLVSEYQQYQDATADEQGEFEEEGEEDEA

Row | Structure (SMILES) | IC50 [1, 20] | IC50 [2, 21] | IC50 [3] | IC50 [4] | IC50 [5] | IC50 [6] | IC50 [7] | IC50 (NCI-H520 (Lung)) | IC50 [8] | IC50 [9] | IC50 [10] | IC50 [11] | IC50 [12] | IC50 [13] | IC50 [14] | IC50 [15] | IC50 [16] | IC50 [17] | IC50 [18] | tubulin binding affinity compared with vinblastine (porcine tubulin) | other results
1 | CC[C@]1(N)C[C@H]2CN(CCc3c([nH]c4ccccc34)[C@@](C(=O)OC)(c3cc4c(cc3OC)N(C)[C@H]3[C@@](O)(C(=O)OC)[C@H](OC(C)=O)[C@]5(CC)C=CCN6CC[C@]43[C@@H]65)C2)C1 [Compound 7, 20′-aminovinblastine] | 600 nM | > 10000 nM | 640 nM | 600 nM | > 10000 nM | – | – | – | – | – | – | – | – | – | – | – | – | – | – | – | –
2 | CC[C@]1(O)C[C@@H]2CN(CCc3c([nH]c4ccccc34)[C@@](C(=O)OC)(c3cc4c(cc3OC)N(C)[C@H]3[C@@](O)(C(=O)OC)[C@H](OC(C)=O)[C@]5(CC)C=CCN6CC[C@]43[C@@H]65)C2)C1 [Vinblastine (1), Vinblastine, reference compound] | – | 600 nM | 6 nM | – | 600 nM | 6 nM | 4 nM | 4.5 nM | 3.8 nM | 3.5 nM | 2.9 nM | 19.6 nM | > 110 nM | 4.6 nM | 7.9 nM | 5 nM | 8 nM | 4.6 nM | > 110 nM | – | % ^3H-vinblastine remaining bound (porcine tubulin): 50.0%; IC50 (LNCaP-FGC (Prostate); read-out: IC50 (nM) LNCaP-FGC): 5.1 nM
3 | CC[C@]1(NC(=O)N2Cc3ccccc3C2)C[C@@H]2CN(CCc3c([nH]c4ccccc34)[C@@](C(=O)OC)(c3cc4c(cc3OC)N(C)[C@H]3[C@@](O)(C(=O)OC)[C@H](OC(C)=O)[C@]5(CC)C=CCN6CC[C@]43[C@@H]65)C2)C1 [Compound 58] | 0.6 nM | 7.5 nM | – | – | – | 0.51 nM | 0.11 nM | 0.1 nM | 0.09 nM | 0.04 nM | 0.04 nM | 0.45 nM | > 12.5 nM | 0.39 nM | 0.45 nM | 0.41 nM | 0.45 nM | 0.11 nM | 3.5 nM | higher affinity than vinblastine | % ^3H-vinblastine remaining bound (porcine tubulin; [22]): 41.2%; IC50 (HCT116 (Colon)): 0.16 nM; IC50 (LNCaP-FGC (Prostate); read-out: IC50 (nM) LNCaP-FGC): 0.24 nM; differential of HCT116/VM46 from sensitive HCT116 in panel [18]: 20 fold; average enhancement over the activity of vinblastine in panel [19]: 30 fold; average IC50 value in human tumor cell line panel [19]: 0.2 nM; IC50 ([19]; range over cell lines, read-out: IC50 values across the panel): 0.04 to 0.45 nM
4 | CCC1(NC(=O)N(C)C)CC2CN(CCc3c([nH]c4ccccc34)C(C(=O)OC)(c3cc4c(cc3OC)N(C)C3C(O)(C(=O)OC)C(OC(C)=O)C5(CC)C=CCN6CCC43C65)C2)C1 (stereo not shown) [Compound 39] | 2.8 nM | 80 nM | – | – | – | 5.9 nM | – | – | – | – | – | – | – | – | – | – | – | – | – | slightly better affinity than vinblastine | fold more potent than vinblastine, HCT116 ([1]; relative to vinblastine): 3 fold; activity difference between sensitive HCT116 and vinblastine-resistant HCT116/VM46 ([2]; HCT116/VM46 vs HCT116): 10 fold; % ^3H-vinblastine remaining bound (porcine tubulin): 45.1 ± 3.5%
5 | CC[C@]1(NC(N)=O)C[C@@H]2CN(CCc3c([nH]c4ccccc34)[C@@](C(=O)OC)(c3cc4c(cc3OC)N(C)[C@H]3[C@@](O)(C(=O)OC)[C@H](OC(C)=O)[C@]5(CC)C=CCN6CC[C@]43[C@@H]65)C2)C1 [Compound 11, reference compound] | 7.5 nM | – | 40 nM | 7.5 nM | 4400 nM | 40 nM | – | – | – | – | – | – | – | – | – | – | – | – | – | – | IC50 [2]: 4400 nM
6 | CCC1(NC(=O)Nc2ccc(-c3ccccc3)cc2)C[C@H]2CN(CCc3c([nH]c4ccccc34)[C@@](C(=O)OC)(c3cc4c(cc3OC)N(C)[C@H]3C(O)(C(=O)OC)[C@H](OC(C)=O)[C@]5(CC)C=CCN6CC[C@]43[C@@H]65)C2)C1 (stereo partly shown) [Compound 35] | – | – | – | – | – | – | – | – | – | – | – | – | – | – | – | – | – | – | – | affinity matching or even slightly exceeding that of vinblastine | IC50 ([1]; Homo sapiens, HCT-116, read-out: IC50 (nM) HCT116): 6.9 nM; IC50 ([2]; Homo sapiens, HCT-116/VM46, read-out: IC50 (nM) HCT116/VM46): 470 nM; % ^3H-vinblastine remaining bound (porcine tubulin; [22]): 48.5 ± 6.9%
7 | CC[C@]1(NC(N)=S)C[C@@H]2CN(CCc3c([nH]c4ccccc34)[C@@](C(=O)OC)(c3cc4c(cc3OC)N(C)[C@H]3[C@@](O)(C(=O)OC)[C@H](OC(C)=O)[C@]5(CC)C=CCN6CC[C@]43[C@@H]65)C2)C1 [Compound 12] | 7.7 nM | 2000 nM | 55 nM | 7.7 nM | 2000 nM | – | – | – | – | – | – | – | – | – | – | – | – | – | – | – | –
8 | CCC1(NC(=O)N2CCc3ccccc3C2)CC2CN(CCc3c([nH]c4ccccc34)C(C(=O)OC)(c3cc4c(cc3OC)N(C)C3C(O)(C(=O)OC)C(OC(C)=O)C5(CC)C=CCN6CCC43C65)C2)C1 (stereo not shown) [Compound 57] | 0.56 nM | 8.7 nM | – | – | – | 0.62 nM | 0.13 nM | 0.14 nM | 0.16 nM | 0.13 nM | 0.06 nM | 0.3 nM | 2.1 nM | 0.12 nM | 1.2 nM | 0.55 nM | 0.52 nM | 0.19 nM | 6.6 nM | higher affinity than vinblastine | IC50 (HCT116 (Colon)): 0.26 nM; IC50 (LNCaP-FGC (Prostate); read-out: IC50 LNCaP-FGC): 0.02 nM; average enhancement over the activity of vinblastine in panel [19]: 30 fold; average IC50 value in human tumor cell line panel [19]: 0.2 nM
